Experiment: Compound was tested for binding affinity towards Opioid receptor delta 1 in guinea pig brain homogenates using [3H][p-Cl-Phe]-DPDPE as radioligand

SMILES	Ki [nM]
C[C@@H](NC(=O)[C@@H](N)Cc1ccc(O)cc1)C(=O)NCC(=O)N[C@@H](Cc1ccc2ccccc2c1)C(=O)NNC(=O)[C@H](Cc1ccc2ccccc2c1)NC(=O)CNC(=O)[C@@H](C)NC(=O)[C@@H](N)Cc1ccc(O)cc1 [Biphalin Analogue]	7.4
C[C@@H](NC(=O)[C@@H](N)Cc1ccc(O)cc1)C(=O)NCC(=O)N[C@@H](Cc1cccc2ccccc12)C(=O)NNC(=O)[C@H](Cc1cccc2ccccc12)NC(=O)CNC(=O)[C@@H](C)NC(=O)[C@@H](N)Cc1ccc(O)cc1 [Biphalin Analogue]	6.4
C[C@@H](NC(=O)[C@@H](N)Cc1ccc(O)cc1)C(=O)NCC(=O)N[C@H](C(=O)NNC(=O)[C@@H](NC(=O)CNC(=O)[C@@H](C)NC(=O)[C@@H](N)Cc1ccc(O)cc1)[C@@H](C)c1ccccc1)[C@@H](C)c1ccccc1 [2-Amino-N-((S)-1-{[((S)-1-{N'-[(S)-2-(2-{(S)-2-[2-amino-3-(4-hydroxy-phenyl)-propionylamino]-propionylamino}-acetylamino)-3-phenyl-butyryl]-hydrazinocarbonyl}-2-phenyl-propylcarbamoyl)-methyl]-carbamoyl}-ethyl)-3-(4-hydroxy-phenyl)-propionamide]	11
C[C@H](c1ccccc1)[C@H](NC(=O)CNC(=O)[C@@H](C)NC(=O)[C@@H](N)Cc1ccc(O)cc1)C(=O)NNC(=O)[C@@H](NC(=O)CNC(=O)[C@@H](C)NC(=O)[C@@H](N)Cc1ccc(O)cc1)[C@H](C)c1ccccc1 [2-Amino-N-((S)-1-{[((R)-1-{N'-[(R)-2-(2-{(S)-2-[2-amino-3-(4-hydroxy-phenyl)-propionylamino]-propionylamino}-acetylamino)-3-phenyl-butyryl]-hydrazinocarbonyl}-2-phenyl-propylcarbamoyl)-methyl]-carbamoyl}-ethyl)-3-(4-hydroxy-phenyl)-propionamide]	110
C[C@@H](NC(=O)[C@@H](N)Cc1ccc(O)cc1)C(=O)NCC(=O)N[C@@H](Cc1c(F)c(F)c(F)c(F)c1F)C(=O)NNC(=O)[C@H](Cc1c(F)c(F)c(F)c(F)c1F)NC(=O)CNC(=O)[C@@H](C)NC(=O)[C@@H](N)Cc1ccc(O)cc1 [Biphalin Analogue]	7.8

— BindingDB's records for doi:10.1016/s0960-894x(98)00065-1 (University of Arizona, 1999)
